Data published in patent publication US20180289809A1, “FORMULATIONS OF HYDROPHILIC COMPOUNDS” (BCS Business Consulting Services Pte Ltd., priority 2015, published 2018).

Assay: Formation of clear nanoemulsion formulation with substituted hydrophobic phase ingredient
Assay type: physicochemical
Settings: used as hydrophobic phase ingredient substituted into the examples; failures generally began cloudy and separated into two phases, primarily within 24 hours

| SMILES | forms successful nanoemulsion / clear formulation |
| --- | --- |
| CCCCCCCCCCCCCCCCCC(=O)OCCCCCCCC [octyl stearate] | did not form successful nanoemulsion formulations |
| C[Si]1(C)O[Si](C)(C)O[Si](C)(C)O[Si](C)(C)O[Si](C)(C)O1 [cycopentasiloxane] | did not form successful nanoemulsion formulations |
| CCCCC(CC)COC(=O)c1ccccc1 (stereo not shown) [ethylhexyl benzoate] | did not form successful nanoemulsion formulations |
| CC(C)=CCC/C(C)=C/CC/C(C)=C/CC/C=C(\C)CC/C=C(\C)CCC=C(C)C [Squalene] | did form clear formulations |
| CCCCCCCCCCCCCCCC(=O)OC(C)C [isopropyl palmitate] | did not form successful nanoemulsion formulations |
| CCCCC/C=C\C/C=C\CCCCCCCC(=O)Oc1c(C)c(C)c2c(c1C)CC[C@@](C)(CCC[C@H](C)CCC[C@H](C)CCCC(C)C)O2 [tocopheryl linoleate] | did not form successful nanoemulsion formulations |
| CCCCCCCCCCCCCCCCOC(=O)CCCCCCC [cetyl octanoate] | did not form successful nanoemulsion formulations |
